According to patent publication US20130287807A1, “COMPOUNDS FOR TREATING SYMPTOMS ASSOCIATED WITH PARKINSON'S DISEASE” (priority 2008, published 2013):
Ends that are not written are not given here.

B1: p4796 (peptide)
peptide: GEIRFELC
B2: p4794 (peptide)
peptide: HQKMIFC
B3: p4695 (peptide)
peptide: GTLIFHHC
B4: p4688 (peptide)
peptide: GSLFFWPC
B5: p4804 (peptide)
peptide: Ac-GEIYFERC
B6: p4795 (peptide)
peptide: GELFFEKC

Legend:
[1] = test system: full length Aβ and/or fragments thereof; assay: Immune response elicited by using AD mimotopes: detection of Aβ; format: in vivo; set-up: key: +: All peptides listed in table 1 mount specific immune reactions against full length Aβ and/or fragments thereof
From the text: In the following Table further examples of the immune response elicited by using AD mimotopes are described. All peptides listed in table 1 mount specific immune reactions against full length Aβ and/or fragments thereof.

[2] = test system: monoclonal antibody (DAEFRH-peptide-specific); assay: Inhibition assay (ELISA): mimotope peptides compete with plate-bound original epitope DAEFRH for recognition by the monoclonal antibody; format: binding, Mice; conditions: for inhibition of binding of the monoclonal antibody to the original epitope: text to FIGS. 2-9; for Inhibitory capacity of mimotopes: summary Tables 1 and 2 (Examples 2, 3)
From the text: Mice are vaccinated with the 6mer peptide DAEFRH (natural N-terminal Aβ42 sequence) linked to the protein bovine serum albumin BSA (to make use of the hapten-carrier-effect), emulsified in CFA (first injection) and IFA (booster injections). DAEFRH-peptide-specific, antibody-producing hybridomas are detected by ELISA (DAEFRH-peptide-coated ELISA plates).
FIGS. 2 and 3 describe the results of inhibition assays performed with mimotope peptides included in and obtained from the 5 libraries (as described in WO 2004/062556). The mimotope peptides compete with the original epitope for recognition by the monoclonal antibody. Original epitope and mimotope peptides contain an additional C at the C-terminus for coupling to a protein carrier (if desired).
(§1) After blocking with PBS/BSA 1% (200 μl/well, 12 h, 4° C.), the plates are washed 3× times with PBS/Tween. Then, biotinylated monoclonal antibody (1:2000, 50 μl/well) and peptides (50 μl/well) at 50, 5, 0.5, 0.05, 0.005, and 0.0005 μg/ml are added for 20 min. at 37° C. The plates are washed 3× times with PBS/Tween and are incubated with horseradish peroxidase (HRP)-labeled streptavidin (100 μl/well, 30 min, RT). The plates are washed 5× times with PBS/Tween and are incubated with ABTS+H2O2(0.1% w/v, 10 to 45 min) and the reaction is stopped with citric acid followed by photometric evaluation (wavelength 405 nm).
as §1, with “different concentrations” for “50, 5, 0.5, 0.05, 0.005, and 0.0005 μg/ml”, “ABTS+H2O2 (0.1%” for “ABTS+H2O2(0.1%”
as §1, with “different concentrations” for “50, 5, 0.5, 0.05, 0.005, and 0.0005 μg/ml”

p4377 = assay: Mimotope vaccination, serum ELISA against p4377; format: in vivo, C57/B16 mice; conditions: peptide-KLH vaccines with alum; FIG. 24
Protocol: (§2) Inhibiting as well as non-inhibiting peptides were coupled to KLH and injected into mice (wildtype C57/B16 mice; subcutaneous injection into the flank) together with an appropriate adjuvant (aluminium hydroxide). Animals were vaccinated 3-6 times in biweekly intervals and sera were taken biweekly as well. Titers to injected peptides, as well as to an irrelevant peptide were determined with every serum. Furthermore, titers against the recombinant human Aβ protein, and against original peptides were determined respectively. In general sera were analysed by reaction against peptides coupled to Bovine Serum Albumin (BSA) and recombinant full length proteins which were immobilised on ELISA plates. Titers were determined using anti mouse IgG specific antibodies. For detailed results see FIGS. 15, 16 and 17 respectively and FIGS. 23, 24 and 25 respectively.
(§3) Female C57/b16 mice, 5-6 mice per group, were subcutaneously immunized with 30 μg peptide coupled to KLH. Control groups were administered original epitope-KLH conjugates respectively. As adjuvant alum was used (always 1 mg per mouse). […] The in vitro ELISA assay to determine the antibody titer was performed with sera of single mice after each vaccination in a two week interval (see FIGS. 25 and 26 respectively). Titers were calculated as OD max/2 in all figures shown. The wells of the ELISA plate were coated with mimotope-BSA conjugate and an irrelevant peptide-BSA conjugate (negative control). The positive control was performed by reaction of the parental antibody with the respective mimotope-BSA conjugate. The detection was performed with anti-mouse IgG. Additionally, recombinant proteins were immobilised on ELISA plates and sera reacted accordingly. FIGS. 23, 24 and 25 show representative examples for assays used to characterise mimotopes in vivo.

irrelevant peptide p1454 = assay: Mimotope vaccination, serum titer ELISA against irrelevant peptide; format: in vivo, C57/B16 mice; conditions: 30 μg peptide-KLH s.c. with alum
Protocol: as §2
as §3, with “15” for “25”, “16” for “26”, “respectively).” for “respectively). Titers were calculated as OD max/2 in all figures shown.”, “15 to 17” for “23, 24 and 25”
as §3

[3] = test system: injected peptide (mimotope-BSA conjugate); assay: Mimotope vaccination, serum titer ELISA against injected peptide; format: in vivo, C57/B16 mice; conditions: 30 μg peptide-KLH s.c. with alum, anti-mouse IgG
Protocol: as §2
as §3, with “15” for “25”, “16” for “26”, “respectively).” for “respectively). Titers were calculated as OD max/2 in all figures shown.”, “15 to 17” for “23, 24 and 25”
as §3

[4] = test system: monoclonal antibody MV-002; assay: In vitro inhibition assay (ELISA), MV-002 binding to original epitope; set-up: species or system C57/B16 mice; conditions: for inhibition of binding of monoclonal antibody in in vitro competition experiments: MV-002 mimotopes; for Inhibition Capacity: Table 2 (MV-002), OD at 5 ug peptide compared to original peptide
Protocol: Different amounts of peptides (concentrations ranging from 10 μg to 0.08 μg; serial dilutions; for MV-002: concentrations ranging from 5 μg to 0.03 μg; serial dilutions), derived from Phage Display were incubated with the monoclonal antibody that was used for the screening procedure. Peptides diminishing subsequent binding of the antibody to the original epitope coated on ELISA plates were considered as inhibiting in this assay.
Legend to Table 2: the inhibition capacity is coded by the following code: Weak inhibition means more peptide is required to lower AB binding than with the original epitope; strong inhibition means similar peptide amounts are required for mimotope and original epitope for lowering AB binding. Mimotopes are compared to the original peptide as standard. OD at 5 ug peptide used in the assay is used to calculate the competition capacity compared to original peptide.

[5] = test system: Aβ/truncated/modified forms; assay: In vivo characterisation of mimotopes: detection of Aβ/truncated/modified forms; set-up: species or system C57/B16 mice; key: +: All peptides listed in table 4 mount specific immune reactions against full length and/or truncated and modified forms of Aβ or fragments thereof; conditions: Table 4, MV-002 derived mimotopes
Protocol: as §2
as §3, with “15” for “25”, “16” for “26”, “respectively).” for “respectively). Titers were calculated as OD max/2 in all figures shown.”, “15 to 17” for “23, 24 and 25”
as §3

[6] = test system: monoclonal antibody MV-002; assay: In vitro binding assay (ELISA), BSA-coupled peptides, parental antibody MV-002; set-up: species or system C57/B16 mice; conditions: Table 1 (MV-002); peptide-BSA on plate, compared to original epitope
In short: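 BSA-conjugated phage-display peptides and variants coated on ELISA plates at 1 μM, then incubated with the monoclonal antibody used for the screen. Binding capacity given as 1:X, the dilution factor of the parental antibody; Ac- marks acetylated amino acids.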

[7] = biological target: monoclonal antibody MV-002; assay: ELISA on peptide-BSA; code 2 = medium binding, OD halfmax 1:40000-320000
[8] = competition ELISA, plate-bound DAEFRH-C-BSA

Molecule	immune response against original epitope p4377 (p4377)	immune response against unrelated sequence (p1454) (irrelevant peptide p1454)	immune response against injected peptide [3]	inhibition of binding of monoclonal antibody in in vitro competition experiments [4]	Detection of Aβ/truncated/modified forms [5]	Binding Capacity [6]	OD halfmax dilution factor of the parental antibody (1:X) (dilutionfactor(1:x)) [7]	also measured
N=C(N)NCCC[C@H](NC(=O)[C@H](Cc1ccccc1)NC(=O)[C@H](CCC(=O)O)NC(=O)[C@H](Cc1ccc(O)cc1)NC(=O)[C@@H](N)CCC(=O)O)C(=O)NCC(=O)N[C@@H](CS)C(=O)O [Peptide 1239, EYEFRG]	–	–	–	–	–	–	–	Detection of Aβ [1]: +; IC50 (inhibition of monoclonal antibody recognition of DAEFRH) ([2]; competition ELISA, plate-bound DAEFRH-C-BSA, biotinylated mAb 1:2000): more than 0.5 μg/ml; inhibition of binding of the monoclonal antibody to the original epitope [2, 8]: block epitope recognition; Inhibitory capacity of mimotopes [2]: intermediate
C[C@H](NC(=O)[C@@H](N)Cc1ccc(O)cc1)C(=O)N[C@@H](CCC(=O)O)C(=O)N[C@@H](Cc1ccccc1)C(=O)N[C@@H](CCCNC(=N)N)C(=O)NCC(=O)N[C@@H](CS)C(=O)O [Peptide 3005, YAEFRG]	–	–	–	–	–	–	–	Detection of Aβ [1]: +; inhibition of binding of the monoclonal antibody to the original epitope [2, 8]: block epitope recognition; Inhibitory capacity of mimotopes [2]: intermediate
EVHHQKLVFC [p4377, reference compound]	mounted detectable immune responses	failed to induce a relevant unspecific immune response	elicited immune responses	–	–	–	–	–
GEIWFEGC [p4680]	mounted detectable immune responses	failed to induce a relevant unspecific immune response	elicited immune responses	active in in vitro inhibition assays	+	3 (strong binding :>320000)	–	Inhibition Capacity [4]: 2 (strong inhibition (as original epitope; OD of peptide below 2, 3 times of original peptide))
GEIYFERC [p4681]	mounted detectable immune responses	failed to induce a relevant unspecific immune response	elicited immune responses	active in in vitro inhibition assays	+	3 (strong binding :>320000)	–	Inhibition Capacity [4]: 2 (strong inhibition (as original epitope; OD of peptide below 2, 3 times of original peptide))
HMRLFFNC [p4670]	mounted detectable immune responses	failed to induce a relevant unspecific immune response	elicited immune responses	active in in vitro inhibition assays	+	3 (strong binding :>320000)	–	Inhibition Capacity [4]: 1 (Weaker than original epitope (OD of peptide below 4, 6 times of original peptide))
HQKMIFAC [p4675]	mounted detectable immune responses	failed to induce a relevant unspecific immune response	elicited immune responses	active in in vitro inhibition assays	+	3 (strong binding :>320000)	–	Inhibition Capacity [4]: 2 (strong inhibition (as original epitope; OD of peptide below 2, 3 times of original peptide))
SHTRLYFC [p4403]	mounted detectable immune responses	failed to induce a relevant unspecific immune response	elicited immune responses	without inhibition capacity	+	1 (weak binding :<40000)	–	–
B1	–	–	–	–	–	–	40000 to 320000	–
B2	–	–	–	–	–	–	40000 to 320000	–
B3	–	–	–	–	–	–	40000 to 320000	–
B4	–	–	–	–	–	–	40000 to 320000	–
B5	–	–	–	–	–	–	40000 to 320000	–
B6	–	–	–	–	–	–	40000 to 320000	–
